In EP3628044B1, “PYRROLO[2,3-C]PYRIDINES AND RELATED ANALOGS AS LSD-1 INHIBITORS” (The Regents of The University of Michigan, priority 2017, dated 2018) one finds IC50 data, which are given here for 2 compounds.

For orientation: IC50 means the point on the concentration scale where inhibition reaches its midpoint.

The experiment concerns the target T1, Human recombinant LSD1 protein (Homo sapiens, UniProt O60341).
T1 construct: purchased Active Motif (Carlsbad, CA); host or cells: E. coli
The experiment can be described thus: LSD1 enzymatic activity assay (AlphaLISA, Biotin-H3K4Me peptide substrate). In kind it is biochemical. The conditions noted are these: 4 nM LSD1, 80 nM Biotin-H3K4Me peptide substrate, 1% DMSO, compounds tested as the TFA salt. Here is the method: Human recombinant LSD1 protein expressed in E. coli cells was purchased from Active Motif (Carlsbad, CA). Biotin-labeled Histone H3K4Me peptide (residues 1-21 with Lys 4 monomethylated) substrate was purchased from Anaspec (Fremont, CA). Enzymatic activity was assessed using the AlphaLISA technology from Perkin Elmer Life Sciences (Waltham, MA). 2.5 µL of compound solution and 5 µL of LSD1 solutions in the assay buffer (50mM Tris, pH 9.0, 50mM NaCl with 0.01% Tween20 and 1mM DTT added right before the assay) were added into a white low volume 384 well microtiter plate. This mixture solution was incubated for 15 minutes with gentle shaking at room temperature. Demethylation reaction was initiated by adding 2.5 µL of Biotin-H3K4Me peptide substrate solution in the assay buffer. Final concentrations of LSD1, Biotin-H3K4Me peptide substrate, and DMSO were 4 nM, 80 nM, and 1%, respectively. […] Plates were read on a BMG CLARIOStar multimode plate reader from BMG Labtech (Ortenberg, Germany) with an excitation wavelength of 680 nm and emission wavelength of 615 nm. IC50 values of inhibitors were obtained by fitting the fluorescence intensity vs inhibitor concentrations in a sigmoidal dose-response curve (variable slope) with a non-linear regression using Prism 7 (La Jolla, CA). […]
A general note: Alpha assays give light when donor and acceptor beads are brought close together.

SMILES strings stand for the structures.

`CN(C)c1ccc(-c2ncc3c(ccn3CC3CCNCC3)c2-c2ccc(C#N)cc2)cc1` [compound 85, 4-(5-(4-(dimethylamino)phenyl)-1-(piperidin-4-ylmethyl)-1H-pyrrolo[2,3-c]pyridin-4-yl)benzonitrile]: the IC50 turned out to be 23.1 nM.

With `Cn1ncc2cc(-c3ncc4c(ccn4CC4CCNCC4)c3-c3ccc(C#N)cc3F)ccc21` [compound 89, 3-fluoro-4-(5-(1-methyl-1H-indazol-5-yl)-1-(piperidin-4-ylmethyl)-1H-pyrrolo[2,3-c]pyridin-4-yl)benzonitrile], the IC50 was found to be […].
